Test results reported in patent US8119695B2, “Compounds and methods for treating breast cancer and other diseases” (City of Hope, priority 2003, dated 2012).
Each block holds one molecule with its values, some of them ahead of it.

Tests used:
Assay type in all cases: cell-based
[1] = test system: ERRs; test: repression / antagonism of ERRs; conditions: result in words
[2] = test system: MH100x4; test: MH100x4 luciferase reporter without receptor; conditions: Table 3, dose 2.5 (unit not given); for Reporter Activity: None 0.57; for Fold Activation: None 1
Source text: (§1) MH100x4 is a luciferase reporter with four copies of a GAL4 […] response element. GAL-L refers to the ligand-binding domain of the indicated receptor fused to the C-terminus of the GAL4 DNA binding domain.

[3] = test system: ERRγ (GAL-ERRg); test: MH100x4 luciferase reporter with GAL-ERRg; parameters: Reporter Activity: unit not given here; conditions: for Fold Activation / Reporter Activity: Table 3, dose 2.5 (unit not given); for Fold Activation: None 1; for Reporter Activity: None 2.2
Source text: as §1

[4] = target: T1, ERRβ (GAL-L-ERRb) (Homo sapiens, UniProt O95718); test: MH100x4 luciferase reporter with GAL-L-ERRb; parameters: Reporter Activity: unit not given here
T1 construct: expressed in transfected cells
T1 sequence (O95718 208-432 limits assumed): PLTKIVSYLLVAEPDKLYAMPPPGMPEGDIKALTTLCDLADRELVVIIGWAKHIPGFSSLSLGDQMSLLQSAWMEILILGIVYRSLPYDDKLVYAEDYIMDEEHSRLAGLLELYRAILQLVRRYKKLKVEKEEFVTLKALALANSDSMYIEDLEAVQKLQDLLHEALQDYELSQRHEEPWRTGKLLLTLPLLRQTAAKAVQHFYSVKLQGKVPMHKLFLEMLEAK
Source text: as §1

[5] = test system: ERRα (GAL-ERRa); test: MH100x4 luciferase reporter with GAL-ERRa; parameters: Reporter Activity: unit not given here
Source text: as §1

[6] = test system: ERE-TK-luc; test: ERE-TK-luc reporter without receptor, E2 100 nM; conditions: Table 6; for Fold Activation: None 1.00; for Reporter Activity: None 1.44
[7] = target: T2, ERβ (ERb) (Homo sapiens, UniProt Q92731); test: ERE-TK-luc reporter with ERb, E2 100 nM; conditions: Table 6, None 2.88
T2 construct: expressed in transfected cells

[8] = target: T3, ERα (ERa) (Homo sapiens, UniProt P03372); test: ERE-TK-luc reporter with ERa, E2 100 nM; conditions: Table 6, None 3.43
T3 construct: expressed in transfected cells
T3 sequence (P03372 1-595): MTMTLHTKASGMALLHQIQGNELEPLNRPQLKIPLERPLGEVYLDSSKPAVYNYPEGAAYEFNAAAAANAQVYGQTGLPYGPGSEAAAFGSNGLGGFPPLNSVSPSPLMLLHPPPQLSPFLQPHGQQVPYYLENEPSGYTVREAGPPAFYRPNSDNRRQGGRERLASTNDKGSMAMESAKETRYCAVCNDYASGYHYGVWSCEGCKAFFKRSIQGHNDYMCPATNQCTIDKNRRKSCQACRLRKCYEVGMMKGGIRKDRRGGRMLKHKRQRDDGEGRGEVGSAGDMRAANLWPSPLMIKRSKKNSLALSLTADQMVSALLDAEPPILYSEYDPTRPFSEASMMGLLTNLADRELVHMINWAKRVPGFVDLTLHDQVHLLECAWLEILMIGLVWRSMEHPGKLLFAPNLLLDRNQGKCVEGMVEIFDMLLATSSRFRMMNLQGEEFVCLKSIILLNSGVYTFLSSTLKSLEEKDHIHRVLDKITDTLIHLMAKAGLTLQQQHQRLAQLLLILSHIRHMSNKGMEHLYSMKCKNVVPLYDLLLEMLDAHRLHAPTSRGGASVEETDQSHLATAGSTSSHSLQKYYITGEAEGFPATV

[9] = Table 3, dose 2.5 (unit not given), None 1
[10] = Table 3, dose 2.5 (unit not given), None 2.38
[11] = Table 3, dose 2.5 (unit not given), None 8.18
[12] = E2 100 nM + DY 40, head 0 μM (1st)
[13] = E2 100 nM + DY 40, head 0 μM (2nd)

T2 sequence (Q92731 whole entry, species assumed): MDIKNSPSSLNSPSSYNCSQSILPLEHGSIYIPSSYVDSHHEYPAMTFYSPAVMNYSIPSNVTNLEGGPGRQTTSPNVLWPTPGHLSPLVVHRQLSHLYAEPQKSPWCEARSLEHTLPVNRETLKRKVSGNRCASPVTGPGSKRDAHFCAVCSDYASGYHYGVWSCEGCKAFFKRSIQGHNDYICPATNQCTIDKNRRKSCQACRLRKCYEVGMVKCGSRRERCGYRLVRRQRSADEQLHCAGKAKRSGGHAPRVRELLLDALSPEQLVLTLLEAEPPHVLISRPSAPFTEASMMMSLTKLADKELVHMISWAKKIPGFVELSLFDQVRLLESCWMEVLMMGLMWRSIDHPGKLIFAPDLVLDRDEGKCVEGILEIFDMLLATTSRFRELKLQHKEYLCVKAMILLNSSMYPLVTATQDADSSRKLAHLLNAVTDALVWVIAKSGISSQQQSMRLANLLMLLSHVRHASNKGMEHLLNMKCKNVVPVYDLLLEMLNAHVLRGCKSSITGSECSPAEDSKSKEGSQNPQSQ

SMILES: CCCC(=C(c1ccc(O)cc1)c1ccc(O)cc1)c1ccccc1 [DY37]
repression of ERRs [1]: does not repress ERRs

Reporter Activity [2]: 0.56
Fold Activation [2]: 0.98
Fold Activation [3]: 0.68
Reporter Activity [3]: 1.5
Fold Activation [4, 9]: 0.86
Reporter Activity [4, 10]: 2.04
Fold Activation [5, 9]: 1.03
Reporter Activity [5, 11]: 8.46
SMILES: Oc1ccc(C(=C(CCCl)c2ccccc2)c2ccc(O)cc2)cc1 [DY30]
repression of ERRs [1]: does not repress ERRs

SMILES: CCC(=C(c1ccc(O)cc1)c1ccc(O)cc1)c1ccccc1 [DY25, 1,1-Bis(4-hydroxyphenyl)-2-phenylbut-1-ene]
repression of ERRs [1]: does not repress ERRs

Reporter Activity [2]: 0.4
Fold Activation [2]: 0.7
Fold Activation [3]: 0.53
Reporter Activity [3]: 1.16
Fold Activation [4, 9]: 0.74
Reporter Activity [4, 10]: 1.75
Fold Activation [5, 9]: 1.06
Reporter Activity [5, 11]: 8.71
SMILES: Oc1ccc(C(=C(CCCCl)c2ccccc2)c2ccc(O)cc2)cc1 [DY31]
repression of ERRs [1]: does not repress ERRs

SMILES: CC(C)C(=C(c1ccc(O)cc1)c1ccc(O)cc1)c1ccccc1 [DY34, 1,1-Bis(4-hydroxyphenyl)-2-phenylbut-3-methyl-1-ene]
Fold Activation [3]: 0.61
Reporter Activity [3]: 1.35
Fold Activation [4, 9]: 0.48
Reporter Activity [4, 10]: 1.15
Fold Activation [5, 9]: 1.01
Reporter Activity [5, 11]: 8.24
repression of ERRs [1]: does not repress ERRs

SMILES: CC(=O)Oc1ccc(/C(=C(/c2ccccc2)C(C)C)c2ccc(OCCN(C)C)cc2)cc1 [DY40, (E,Z)-4-{1-[4-(2-dimethylamino-ethoxy)-phenyl]-3-methyl-2-phenyl-but-1-enyl}-phenyl acetate]
Fold Activation ([6]; E2 100 nM + DY 40 0.01 μM): 1.03
Reporter Activity ([6]; E2 100 nM + DY 40 0.01 μM): 1.48
Fold Activation ([6]; E2 100 nM + DY 40 0.03 μM): 0.85
Reporter Activity ([6]; E2 100 nM + DY 40 0.03 μM): 1.22
Fold Activation ([6]; E2 100 nM + DY 40 0.1 μM): 0.69
Reporter Activity ([6]; E2 100 nM + DY 40 0.1 μM): 0.99
Fold Activation ([6]; E2 100 nM + DY 40 0.3 μM): 0.47
Reporter Activity ([6]; E2 100 nM + DY 40 0.3 μM): 0.67
Fold Activation [6, 12]: 0.90
Reporter Activity [6, 12]: 1.29
Fold Activation [6, 13]: 0.81
Reporter Activity [6, 13]: 1.17
inhibition of the activity of ERRγ [3]: inhibit the activity
potency antagonizing ERRγ relative to 4-hydroxytamoxifen [3]: about 30 fold
Fold Activation ([4]; Table 4, DY40 dose head 0 (1st of 3), None 1.2): 1.33
Reporter Activity ([4]; Table 4, DY40 dose head 0 (1st of 3), None 8.67): 9.61
Fold Activation ([4]; Table 4, DY40 dose head 0 (2nd of 3), None 1.2): 0.92
Reporter Activity ([4]; Table 4, DY40 dose head 0 (2nd of 3), None 8.67): 6.61
Fold Activation ([4]; Table 4, DY40 dose head 0 (3rd of 3), None 1.2): 0.7
Reporter Activity ([4]; Table 4, DY40 dose head 0 (3rd of 3), None 8.67): 5.07
Fold Activation ([4]; Table 4, dose 0.1 (unit not given), None 1/1.2): 0.2
Reporter Activity ([4]; Table 4, dose 0.1 (unit not given), None 7.21/8.67): 1.4
Fold Activation ([4]; Table 4, dose 0.3 (unit not given), None 1/1.2): 0.1
Reporter Activity ([4]; Table 4, dose 0.3 (unit not given), None 7.21/8.67): 0.73
Fold Activation ([4]; Table 4, dose 1 (unit not given), None 1/1.2): 0.08
Reporter Activity ([4]; Table 4, dose 1 (unit not given), None 7.21/8.67): 0.59
potency antagonizing ERRβ relative to 4-hydroxytamoxifen ([4]; greater than 4-hydroxytamoxifen): about 30 fold
inhibition of the activity of ERRβ ([4]; result in words): inhibit the activity
Reporter Activity ([7]; E2 100 nM + DY 40 0.01 μM): 3.19
Reporter Activity ([7]; E2 100 nM + DY 40 0.03 μM): 2.36
Reporter Activity ([7]; E2 100 nM + DY 40 0.1 μM): 1.58
Reporter Activity ([7]; E2 100 nM + DY 40 0.3 μM): 1.09
Reporter Activity [7, 12]: 9.37
Reporter Activity [7, 13]: 6.03
Fold Activation ([5]; Table 4, DY40 dose head 0 (1st of 3), None 1.23): 1.24
Reporter Activity ([5]; Table 4, DY40 dose head 0 (1st of 3), None 34.05): 34.34
Fold Activation ([5]; Table 4, DY40 dose head 0 (2nd of 3), None 1.23): 1.17
Reporter Activity ([5]; Table 4, DY40 dose head 0 (2nd of 3), None 34.05): 32.4
Fold Activation ([5]; Table 4, DY40 dose head 0 (3rd of 3), None 1.23): 1.23
Reporter Activity ([5]; Table 4, DY40 dose head 0 (3rd of 3), None 34.05): 34
Fold Activation ([5]; Table 4, dose 0.1 (unit not given), None 1/1.23): 1.3
Reporter Activity ([5]; Table 4, dose 0.1 (unit not given), None 27.7/34.05): 37
Fold Activation ([5]; Table 4, dose 0.3 (unit not given), None 1/1.23): 1.47
Reporter Activity ([5]; Table 4, dose 0.3 (unit not given), None 27.7/34.05): 40.8
Fold Activation ([5]; Table 4, dose 1 (unit not given), None 1/1.23): 0.98
Reporter Activity ([5]; Table 4, dose 1 (unit not given), None 27.7/34.05): 27.3
Reporter Activity ([8]; E2 100 nM + DY 40 0.01 μM): 5.07
Reporter Activity ([8]; E2 100 nM + DY 40 0.03 μM): 2.42
Reporter Activity ([8]; E2 100 nM + DY 40 0.1 μM): 1.97
Reporter Activity ([8]; E2 100 nM + DY 40 0.3 μM): 1.32
Reporter Activity [8, 12]: 13.55
Reporter Activity [8, 13]: 8.57
